Test results published in patent US20140051696A1, “THERAPIES FOR TREATING CANCER” (GILEAD CALISTOGA LLC, priority 2012, published 2014).
Entries after “also recorded” stand apart in the source; their conditions may differ. Like-named read-outs stand apart in the source and are kept apart here. Blank lines part the entries; values can stand above or below the compound they belong to.

Tests used:
CCL2, CCL3, and CCL4 = assay: Chemokine release ELISA, CLL patient samples in conditioned media; format: cell-based, human; conditions: patient samples cultured in conditioned media; alone and in combination
Procedure: (§3) In this Example, CLL patient samples were assessed for growth inhibition, chemokine release, and pathway activation status using a tetrazolium-based MTS assay, ELISA, and flow cytometry, respectively. Peripheral blood mononuclear cells (PBMCs) were isolated from primary patient samples using a Ficoll-Paque gradient. […] 5×10^5 primary cells were cultured in triplicate in HS-5 stromal cell conditioned media and growth inhibition was determined after 72 hours.

[1] = Plasma pharmacokinetics in healthy human subjects, alone or in combination; conditions: for AUC / Cmax: human, Mean (% CV); for AUC: AUCtau
Procedure: On Day 1, PK samples were collected at pre-dose, 2, 4, 8, and 12 hours post dose. On Day 4, samples were collected relative to the AM dose of study drug(s) at the following time points: pre-dose, 1, 2, 2.5, 3, 4, 6, 8, 10, 12, 18, 24, 36, and 48 hours post dose. Trough PK samples were collected on Day 3 prior to dosing.

[2] = tested on: AKT phosphorylation (S473) in CLL cells; assay: Flow cytometry phospho-Akt in CLL cells co-cultured with HS5 stromal cells; format: cell-based, human; conditions: CLL cells of 15 patients co-cultured with HS5 stromal cells
Description: (§1) Ficoll purified CLL cells obtained from 15 patients were co-cultured with HS5 stromal cells then treated with each compound alone or in combination. CLL cells were stained with anti-CD5-FITC and either anti-phospho-Akt S473 (Alexa Fluor 488), phospho-S6 or an […] control antibody (mouse IgG1-Alexa Fluor 488 conjugate, Cell Signaling) and analyzed by 2-color flow cytometry.

[3] = tested on: S6 phosphorylation in CLL cells; assay: Flow cytometry phospho-S6 in CLL cells co-cultured with HS5 stromal cells; format: cell-based, human; conditions: CLL cells of 15 patients co-cultured with HS5 stromal cells
Description: as §1

[4] = tested on: AKT phosphorylation (S473) in Ramos cells; assay: Immunoblot phospho-Akt in Ramos cells after anti-IgM BCR stimulation; format: cell-based, human; conditions: 1 uM each, IgM mediated BCR stimulation
Procedure: (§2) 5×10^6 Ramos (a Burkitt's cell line with intact BCR) were plated and treated with 1 uM of Compound A, 1 uM of Compound B, alone or in combination for 25 hours. Twenty μg Goat F(ab′)2 anti-human IgM (Invitrogen) was added to stimulate the BCR for 30 minutes. Protein were isolated and analyzed using immune-blotting with phospho-Akt (S473), phospho-Erk (T202/Y204), and phospho-S6.

WSU-FSCCL parental cells = assay: AlamarBlue growth inhibition, WSU-FSCCL parental cells; format: cell-based, human; conditions: initially, 72 hr
Procedure: The WSU-FSCCL parental cells were, initially, responsive to treatment of Compound A (FIG. 10A). […] Such cells were cultured and referred to as WSU-FSCCL resistant cells. This reflects a commonly observed clinical situation that patients become resistance or no longer respond to the existing treatment. Both the parental and the resistant cells of WSU-FSCCL were used in this study.
A 7× serial dilution of Compound A and Compound C from a stock of 10 mM (DMSO) was prepared using RPMI+10% FBS (270 μM). The WS-FSCCL cells were added with the compounds in the serial dilution and incubated at 37° C. for 72 hr, followed by the addition of 12.5 μL AlamarBlue (Invitrogen #DAL1100). Plates were then incubated at 37° C. for 4 hours.
The change of color from uptake of the stains in the living cells was measured for absorbance. Fluorescence Ex530, Em590, Cutoff570 on Spectramax M5 (Molecular Dynamics) were determined. To calculate the 50% inhibition of growth (GI50), the reading from the samples were compared to the controls (100% or 0% absorption).

[5] = tested on: WSU-FSCCL resistant cells; assay: AlamarBlue growth inhibition, WSU-FSCCL resistant cells; format: cell-based, human; conditions: 72 hr
Procedure: The WSU-FSCCL parental cells were, initially, responsive to treatment of Compound A (FIG. 10A). […] Such cells were cultured and referred to as WSU-FSCCL resistant cells. This reflects a commonly observed clinical situation that patients become resistance or no longer respond to the existing treatment. Both the parental and the resistant cells of WSU-FSCCL were used in this study. […] The […] cells were added with the compounds in the serial dilution and incubated at 37° C. for 72 hr, followed by the addition of 12.5 μL AlamarBlue (Invitrogen #DAL1100). Plates were then incubated at 37° C. for 4 hours. The change of color from uptake of the stains in the living cells was measured for absorbance. Fluorescence Ex530, Em590, Cutoff570 on Spectramax M5 (Molecular Dynamics) were determined.

[6] = Safety and tolerability in healthy human subjects; conditions: for tolerability: over the dose range evaluated, healthy subjects
Description: The endpoints evaluated include AEs, physical examination and clinical laboratory test findings, 12-lead ECG abnormalities and interval measurements, and vitals signs measurements.
Safety data for each cohort was reviewed after the 10-day observation period following each 4 day treatment period. Subsequent treatments in each cohort were only initiated following post dose safety assessments.

recurrent CLL = conditions: cited from earlier work; for median progression-free survival (PFS): patients with recurrent CLL
[7] = tested on: ERK phosphorylation (T202/Y204) in Ramos cells; assay: Immunoblot phospho-Erk in Ramos cells after anti-IgM BCR stimulation; format: cell-based, human; conditions: 1 uM each, IgM mediated BCR stimulation
Procedure: as §2

primary CLL cells = assay: MTS cell viability assay of primary CLL cells in HS-5 conditioned media; conditions: Homo sapiens
Procedure: as §3
Peripheral blood (PB) or bone marrow (BM) was collected from 14 CLL patients with untreated, relapsed, or refractory diseases. Mononuclear cells were isolated using a Ficoll-Paque gradient and were plated in triplicate into 96-well containing HS-5 conditioned media plus equimolar concentrations of Compound A and Compound B (10 μM to 0.61 nM). After 72 hours, viability was determined by MTS assay (CellTiter 96, Promega).

[8] = Compound A analyte, Compound A 150 mg + Compound B 600 mg vs Compound A 150 mg
[9] = Compound A analyte, Compound A 100 + Compound B 200 or 600 mg vs Compound A 100 mg
[10] = plasma, oral, 100 mg, Compound A analyte, Compound A 100 mg BID alone, fed (N = 16)
[11] = plasma, oral, 150 mg, Compound A analyte, Compound A 150 mg BID alone, fed (N = 7)
[12] = plasma, oral, Compound A analyte, Compound A 150 mg + Compound B 600 mg BID, fed (N = 6)
[13] = plasma, oral, Compound A analyte, Compound A 100 + Compound B 200 or 600 mg BID, fed (N = 16)
[14] = Compound B analyte, Compound B 200 mg + Compound A 100 mg vs Compound B 200 mg
[15] = Compound B analyte, Compound B 600 mg + Compound A 100/150 mg vs Compound B 600 mg
[16] = in vivo, 200 mg, Compound B analyte, Compound B 200 mg BID alone, fed (N = 8)
[17] = in vivo, 600 mg, Compound B analyte, Compound B 600 mg BID alone, fed (N = 16)
[18] = in vivo, Compound B analyte, Compound B 200 mg + Compound A 100 mg BID, fed (N = 8)
[19] = in vivo, Compound B analyte, Compound B 600 mg + Compound A 100/150 mg BID, fed (N = 14)

Ctau, Mean (% CV) ([1]; Compound A analyte, Compound A 100 mg BID alone, fed (N = 16)): 127 (44) ng/ml
Ctau, Mean (% CV) ([1]; Compound A analyte, Compound A 150 mg + Compound B 600 mg BID, fed (N = 6)): 411 (29) ng/ml
AUCtau, % Geometric Least Squares Means Ratio (90% CI), Combination vs. Alone [1, 8]: 1.11 (1.00, 1.24) %
Cmax, % Geometric Least Squares Means Ratio (90% CI), Combination vs. Alone [1, 8]: 1.06 (0.93, 1.21) %
Ctau, % Geometric Least Squares Means Ratio (90% CI), Combination vs. Alone [1, 8]: 1.23 (1.03, 1.47) %
Ctau, Mean (% CV) ([1]; Compound A analyte, Compound A 150 mg BID alone, fed (N = 7)): 320 (43) ng/ml
Ctau, Mean (% CV) ([1]; Compound A analyte, Compound A 100 + Compound B 200 or 600 mg BID, fed (N = 16)): 170 (50) ng/ml
AUCtau, % Geometric Least Squares Means Ratio (90% CI), Combination vs. Alone [1, 9]: 1.17 (1.13, 1.22) %
Cmax, % Geometric Least Squares Means Ratio (90% CI), Combination vs. Alone [1, 9]: 1.13 (1.07, 1.20) %
Ctau, % Geometric Least Squares Means Ratio (90% CI), Combination vs. Alone [1, 9]: 1.33 (1.20, 1.48) %
exposure of Compound A, combination vs alone ([1]; healthy subjects): minor variations
AUC [1, 10]: 8070 ng·h/mL
Cmax [1, 10]: 1660 ng/mL
AUC [1, 11]: 13800 ng·h/mL
Cmax [1, 11]: 2680 ng/mL
AUC [1, 12]: 15800 ng·h/mL
AUC [1, 13]: 9510 ng·h/mL
Cmax [1, 12]: 2870 ng/mL
Cmax [1, 13]: 1880 ng/mL
Compound: CC[C@H](Nc1ncnc2[nH]cnc12)c1nc2cccc(F)c2c(=O)n1-c1ccccc1 [Compound A, (S)-2-(1-(9H-purin-6-ylamino)propyl)-5-fluoro-3-phenylquinazolin-4(3H)-one]
production of CCL2, CCL3, and CCL4 by CLL cells (CCL2, CCL3, and CCL4): reduced
AKT phosphorylation in CLL cells [2]: inhibited or decreased
S6 phosphorylation in CLL cells [3]: inhibited or decreased
AKT phosphorylation in Ramos cells [4]: inhibited or decreased
response of WSU-FSCCL parental cells to treatment (WSU-FSCCL parental cells): responsive
cell viability / sensitivity of WSU-FSCCL resistant cells [5]: became resistant to the treatment
adverse event leading to discontinuation of treatment ([6]; one individual, during Compound A 150 mg dosing): Grade 1 ALT/AST elevation
tolerability [6]: generally well-tolerated

Compound: ofatumumab
median progression-free survival (PFS) (recurrent CLL): 5.8 months

Ctau, Mean (% CV) ([1]; Compound B analyte, Compound B 200 mg + Compound A 100 mg BID, fed (N = 8)): 380 (62) ng/ml
AUCtau, % Geometric Least Squares Means Ratio (90% CI), Combination vs. Alone [1, 14]: 1.64 (1.41, 1.91) %
Cmax, % Geometric Least Squares Means Ratio (90% CI), Combination vs. Alone [1, 14]: 1.50 (1.24, 1.80) %
Ctau, % Geometric Least Squares Means Ratio (90% CI), Combination vs. Alone [1, 14]: 1.96 (1.61, 2.38) %
Ctau, Mean (% CV) ([1]; Compound B analyte, Compound B 200 mg BID alone, fed (N = 8)): 201 (661) ng/ml
Ctau, Mean (% CV) ([1]; Compound B analyte, Compound B 600 mg + Compound A 100/150 mg BID, fed (N = 14)): 1120 (72) ng/ml
AUCtau, % Geometric Least Squares Means Ratio (90% CI), Combination vs. Alone [1, 15]: 1.51 (1.30, 1.75) %
Cmax, % Geometric Least Squares Means Ratio (90% CI), Combination vs. Alone [1, 15]: 1.38 (1.20, 1.59) %
Ctau, % Geometric Least Squares Means Ratio (90% CI), Combination vs. Alone [1, 15]: 1.74 (1.48, 2.03) %
Ctau, Mean (% CV) ([1]; Compound B analyte, Compound B 600 mg BID alone, fed (N = 16)): 832 (82) ng/ml
AUC [1, 16]: 4150 ng·h/mL
Cmax [1, 16]: 618 ng/mL
AUC [1, 17]: 12700 ng·h/mL
Cmax [1, 17]: 1570 ng/mL
AUC [1, 18]: 6750 ng·h/mL
AUC [1, 19]: 16000 ng·h/mL
Cmax [1, 18]: 915 ng/mL
Cmax [1, 19]: 1900 ng/mL
Compound: c1cn2cc(-c3ccc4cn[nH]c4c3)nc(Nc3ccc(N4CCOCC4)cc3)c2n1 [Compound B, 6-(1H-indazol-6-yl)-N-(4-morpholinophenyl)imidazo[1,2-a]pyrazin-8-amine]
production of CCL2, CCL3, and CCL4 by CLL cells (CCL2, CCL3, and CCL4): reduced
AKT phosphorylation in CLL cells [2]: inhibited or decreased
S6 phosphorylation in CLL cells [3]: inhibited or decreased
AKT phosphorylation in Ramos cells [4]: inhibited or decreased
ERK phosphorylation in Ramos cells [7]: inhibit or reduced; also recorded: near complete inhibition or reduction
tolerability [6]: generally well-tolerated
IC50 (primary CLL cells; 72 h, read-out: median cell viability IC50): 3.7 µM
IC50 (primary CLL cells; read-out: cell viability IC50 obtained in 7 samples (50%)): ≤ 2 µM

Compound: rituximab
median PFS (recurrent CLL; addition of high-dose methylprednisone to rituximab): 12 months

Compound: alemtuzumab
median progression-free survival (PFS) (recurrent CLL): 4.7 months
